Measurements as given in patent US10953027B2, “Active agents and methods of their use for the treatment of metabolic disorders and nonalcoholic fatty liver disease” (Flagship Pioneering Innovations V, Inc., priority 2018, dated 2021).

Legend:
Assay type in all cases: in vitro ADME
[1] = Assay 1. Stability in Simulated Gastric Fluid (SGF); conditions: 1 μM, 37° C., SGF pH 1.6 with pepsin
Procedure, shortened: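 Acylated compounds at a final 1 μM (diluted from 1 mM DMSO stock) were incubated at 37 °C in SGF of pH 1.6 NaCl buffer with FaSSIF powder and 0.1 mg/mL pepsin. Aliquots were quenched with acetonitrile at T0 and regular intervals, and degradation rates were determined by LC/MS.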

[2] = Assay 2. Stability in Simulated Intestinal Fluid (SIF); conditions: 1 μM, 37° C., SIF pH 6.7 with pancreatin
Procedure, shortened: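 Acylated compounds at 1 μM (from 1 mM DMSO stock) in fresh SIF: FaSSIF with pancreatin in pH 6.7 phosphate buffer, agitated at 37 °C. Aliquots from T0 onward quenched with 1 volume acetonitrile; LC/MS gives degradation rates.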

[3] = Assay 3. Fecal Incubation Stability; conditions: 1 or 10 μM, human fecal slurry, anaerobic

Row | Structure (SMILES) | Assay 1 (SGF) (% Remaining @ 1 hours) [1] | Assay 2 (SIF) (% @ Remaining 4 hours) [2] | Assay 3 (% Remaining at 24 h) [3]
1 | CCC(=O)O[C@@H]1[C@@H](OC(=O)CC)[C@H](OC(=O)Cc2c[nH]c3ccccc23)OC[C@H]1OC(=O)CC [Compound 109, (2S,3R,4S,5R)-2-{[2-(1H-indol-3-yl)acetyl]oxy}-4,5-bis(propanoyloxy)oxan-3-yl Propanoate] | C (C: >75% of the tested compound remaining) | A (A: <25% of the tested compound remaining) | A (A: <25% of the tested compound remaining)
2 | CO[C@@H]1OC[C@@H](OC(C)=O)[C@H](OC(C)=O)[C@H]1OC(C)=O [Compound 45, (2R,3R,4S,5R)-2-methoxytetrahydro-2H-pyran-3,4,5-triyl Triacetate] | C (C: >75% of the tested compound remaining) | B (B: 25-75% of the tested compound remaining) | B (B: 25-75% of the tested compound remaining)
3 | CCC(=O)O[C@@H]1[C@H](OC)OC[C@@H](OC(=O)CC)[C@H]1OC(=O)CC [Compound 101, (2R,3S,4R,5R)-2-methoxy-3,5-bis(propanoyloxy)oxan-4-yl Propanoate] | C (C: >75% of the tested compound remaining) | A (A: <25% of the tested compound remaining) | B (B: 25-75% of the tested compound remaining)
4 | CCC(=O)O[C@@H]1[C@@H](OC(=O)CC)[C@H](C)O[C@@H](OC(=O)Cc2c[nH]c3ccccc23)[C@@H]1OC(=O)CC [Compound 147, (2S,3R,4R,5S,6S)-2-{[2-(1H-indol-3-yl)acetyl]oxy}-6-methyl-4,5-bis(propanoyloxy)oxan-3-yl Propanoate] | C (C: >75% of the tested compound remaining) | A (A: <25% of the tested compound remaining) | A (A: <25% of the tested compound remaining)
5 | CCC(=O)OC[C@H]1O[C@H](OC)[C@H](OC(=O)CC)[C@@H](OC(=O)CC)[C@@H]1OC(=O)CC [Compound 88, [(2R,3R,4S,5R,6S)-6-methoxy-3,4,5-tris(propanoyloxy)oxan-2-yl]methyl Propanoate] | C (C: >75% of the tested compound remaining) | A (A: <25% of the tested compound remaining) | A (A: <25% of the tested compound remaining)
6 | CCC(=O)O[C@H]1[C@@H](OC(=O)CCc2c[nH]c3ccccc23)OC[C@@H](OC(=O)CC)[C@H]1OC(=O)CC [Compound 126, (2R,3R,4R,5R)-3,4,5-tris(propanoyloxy)oxan-2-yl 3-(1H-indol-3-yl)propanoate] | C (C: >75% of the tested compound remaining) | A (A: <25% of the tested compound remaining) | A (A: <25% of the tested compound remaining)
7 | O=C(Cc1c[nH]c2ccccc12)Oc1cc(C(=O)O)cc(OC(=O)Cc2c[nH]c3ccccc23)c1OC(=O)Cc1c[nH]c2ccccc12 [Compound 237, 3,4,5-tris({[2-(1H-indol-3-yl)acetyl]oxy})benzoic Acid] | C (C: >75% of the tested compound remaining) | A (A: <25% of the tested compound remaining) | A (A: <25% of the tested compound remaining)
8 | CC(=O)OC[C@H]1O[C@@H](OC(C)=O)[C@H](N)[C@@H](OC(C)=O)[C@@H]1OC(C)=O [Compound 194, (2S,3R,4R,5S,6R)-6-(acetoxymethyl)-3-aminotetrahydro-2H-pyran-2,4,5-triyl Triacetate] | C (C: >75% of the tested compound remaining) | A (A: <25% of the tested compound remaining) | C (C: >75% of the tested compound remaining)
9 | CC(=O)O[C@H]1O[C@H](C(=O)O)[C@@H](OC(C)=O)[C@H](OC(C)=O)[C@H]1OC(C)=O [Compound 195, (2S,3S,4S,5R,6R)-3,4,5,6-tetraacetoxytetrahydro-2H-pyran-2-carboxylic Acid] | C (C: >75% of the tested compound remaining) | C (C: >75% of the tested compound remaining) | B (B: 25-75% of the tested compound remaining)
10 | CO[C@H]1O[C@H](COC(C)=O)[C@@H](OC(C)=O)[C@H](OC(C)=O)[C@@H]1OC(C)=O [Compound 193, (2R,3R,4S,5S,6S)-2-(acetoxymethyl)-6-methoxytetrahydro-2H-pyran-3,4,5-triyl Triacetate] | C (C: >75% of the tested compound remaining) | C (C: >75% of the tested compound remaining) | B (B: 25-75% of the tested compound remaining)
11 | CCCC(=O)Oc1cc(OC(=O)CCC)c2c(c1)O[C@H](c1cc(OC(=O)CCC)c(OC(=O)CCC)c(OC(=O)CCC)c1)[C@H](OC(=O)c1cc(OC(=O)CCC)c(OC(=O)CCC)c(OC(=O)CCC)c1)C2 [Compound 3, [(2R,3R)-5,7-di(butanoyloxy)-2-[3,4,5-tri(butanoyloxy)phenyl]chroman-3-yl] 3,4,5-tri(butanoyloxy)benzoate] | C (C: >75% of the tested compound remaining) | C (C: >75% of the tested compound remaining) | C (C: >75% of the tested compound remaining)
12 | CCCC(=O)OC[C@H]1O[C@H](OC(=O)CCc2c[nH]c3ccccc23)[C@H](OC(=O)CCC)[C@@H](OC(=O)CCC)[C@@H]1OC(=O)CCC [Compound 122, [(2R,3R,4S,5R,6R)-3,4,5-tris(butanoyloxy)-6-{[3-(1H-indol-3-yl)propanoyl]oxy}oxan-2-yl]methyl Butanoate] | C (C: >75% of the tested compound remaining) | B (B: 25-75% of the tested compound remaining) | A (A: <25% of the tested compound remaining)
13 | CCCC(=O)O[C@@H]1[C@@H](OC(=O)CCC)[C@@H](OC(=O)CCc2c[nH]c3ccccc23)OC[C@H]1OC(=O)CCC [Compound 128, (2R,3R,4S,5R)-4,5-bis(butanoyloxy)-2-{[3-(1H-indol-3-yl)propanoyl]oxy}oxan-3-yl Butanoate] | C (C: >75% of the tested compound remaining) | A (A: <25% of the tested compound remaining) | A (A: <25% of the tested compound remaining)
14 | CCC(=O)O[C@H]1[C@H](OC(=O)CC)[C@@H](OC(=O)CCc2c[nH]c3ccccc23)O[C@@H](C)[C@H]1OC(=O)CC [Compound 110, (2R,3S,4R,5R,6S)-6-methyl-3,4,5-tris(propanoyloxy)oxan-2-yl 3-(1H-indol-3-yl)propanoate] | C (C: >75% of the tested compound remaining) | C (C: >75% of the tested compound remaining) | A (A: <25% of the tested compound remaining)
15 | CCC(=O)O[C@@H]1[C@@H](OC(=O)CC)[C@@H](OC)OC[C@H]1OC(=O)CC [Compound 105, (2S,3R,4S,5R)-2-methoxy-4,5-bis(propanoyloxy)oxan-3-yl Propanoate] | C (C: >75% of the tested compound remaining) | B (B: 25-75% of the tested compound remaining) | A (A: <25% of the tested compound remaining)
